Measurements taken from PubChem BioAssay AID1996.
Converted amounts (≈) assume the structure as drawn.

conditions: buffer; pH 7.4; 200.0 µM

Which solubility kinetic does the source give for O=C(CN1CCCCC1)NC(=O)Nc1ccccc1F here?
Its solubility kinetic is greater than 41.9 µg/mL.

Which solubility kinetic does the source give for CN1CCN(NC(=O)NC2CCCCC2)CC1 here?
Its solubility kinetic is greater than 36.1 µg/mL.

Which solubility kinetic does the source give for O=C1CN(S(=O)(=O)c2ccccc2Cl)CCN1 here?
Its solubility kinetic is greater than 41.2 µg/mL.

For Cn1cccc1C(=O)NCCc1ccccc1, which solubility kinetic is on record?
The solubility kinetic was greater than 34.2 µg/mL.

With COC(=O)c1ccc(N2C(=O)C3C4C=CC(CC4)C3C2=O)cc1 (configuration not stated) as the compound, how does the solubility kinetic read?
The solubility kinetic was 20.1 µg/mL (≈ 64.6 µM).

Which solubility kinetic does the source give for Cc1cc(/C=C(\C#N)C(=O)O)c(C)n1CC1CCCO1 (configuration not stated) here?
Its solubility kinetic is greater than 41.1 µg/mL.

For CCOc1ccccc1NS(=O)(=O)c1ccc2[nH]c(=O)[nH]c2c1, which solubility kinetic is on record?
Its solubility kinetic is greater than 50 µg/mL.

With CCCCC(=O)OCc1nc2ccccc2s1 as the compound, how does the solubility kinetic read?
Its solubility kinetic is 11.2 µg/mL (≈ 44.9 µM).

For COc1ccc(C(=O)COC(=O)c2sc(C)nc2C)cc1F, which solubility kinetic is on record?
The solubility kinetic was 36.5 µg/mL (≈ 113 µM).

With COCC(C)NC(C(=O)Nc1cccc(C(C)=O)c1)c1ccccc1 (configuration not stated) as the compound, how does the solubility kinetic read?
The solubility kinetic was greater than 51.1 µg/mL.

Which solubility kinetic does the source give for CCCc1cc(=O)[nH]c(SCc2ccc(F)cc2)n1 here?
Its solubility kinetic is 3.2 µg/mL (≈ 11.5 µM).

Which solubility kinetic does the source give for Cc1nn(-c2ccccc2)c(C)c1CN here?
The solubility kinetic was greater than 30.2 µg/mL.

With O=C(O)C(NS(=O)(=O)c1cccc2nsnc12)c1ccccc1 (configuration not stated) as the compound, how does the solubility kinetic read?
Its solubility kinetic is 48.4 µg/mL (≈ 139 µM).

With CCCOC(=O)Cn1cnc2scc(-c3ccc(C)cc3)c2c1=O as the compound, how does the solubility kinetic read?
Its solubility kinetic is 17.2 µg/mL (≈ 50.2 µM).

Which solubility kinetic does the source give for COC(=O)CN1CCN(C(=O)c2ccco2)CC1 here?
Its solubility kinetic is greater than 37.8 µg/mL.

For COc1ccc(NC(=O)c2cc3ccccc3o2)cc1S(=O)(=O)N1CCCCC1, which solubility kinetic is on record?
The solubility kinetic was 9.2 µg/mL (≈ 22.2 µM).

Which solubility kinetic does the source give for O=C(COC(=O)/C=C/c1ccco1)NC1CCCCC1 here?
The solubility kinetic was 16.3 µg/mL (≈ 58.8 µM).

Which solubility kinetic does the source give for Cc1nnc(SCC(=O)NC2CCCCC2)n1N here?
The solubility kinetic was greater than 40.4 µg/mL.

For CC(C)NC(=O)c1ccc2c(=O)n(CC3CCCO3)c(=S)[nH]c2c1 (configuration not stated), which solubility kinetic is on record?
Its solubility kinetic is 4.4 µg/mL (≈ 12.7 µM).

With CCCCNc1c(N)n(CCC)c(=O)[nH]c1=O as the compound, how does the solubility kinetic read?
Its solubility kinetic is greater than 36 µg/mL.

With Cc1ccc2[nH]cc(S(=O)(=O)c3ccc(F)cc3)c(=O)c2c1 as the compound, how does the solubility kinetic read?
The solubility kinetic was 5.5 µg/mL (≈ 17.3 µM).

With O=C(O)C(Cc1ccc(O)cc1)N1C(=O)C2CCCCC2C1=O (configuration not stated) as the compound, how does the solubility kinetic read?
Its solubility kinetic is greater than 47.6 µg/mL.

With N#Cc1ccc(NC(=S)NC(=O)C2CCCCC2)cc1 as the compound, how does the solubility kinetic read?
Its solubility kinetic is 1.6 µg/mL (≈ 5.57 µM).

With COC1C(C)=C(C)C(=O)N1Cc1ccccc1 (configuration not stated) as the compound, how does the solubility kinetic read?
Its solubility kinetic is 33.9 µg/mL (≈ 147 µM).

With CN(C)[C@@H]1C(=O)C(C(N)=O)=C(O)[C@@]2(O)C(=O)C3=C(O)c4c(O)cccc4[C@@](C)(O)[C@H]3[C@H](O)[C@@H]12 as the compound, how does the solubility kinetic read?
The solubility kinetic was 47 µg/mL (≈ 102 µM).

With Cc1ccc(NC(=O)Cn2c(C)csc2=O)cc1 as the compound, how does the solubility kinetic read?
The solubility kinetic was greater than 39.3 µg/mL.

For CC(Sc1nccn1C)C(=O)NC1(C#N)CCCCC1 (configuration not stated), which solubility kinetic is on record?
The solubility kinetic was greater than 43.9 µg/mL.

For Cc1nc2ccc(NC(=O)c3ccc4ccccc4n3)cc2s1, which solubility kinetic is on record?
Its solubility kinetic is less than 0.2 µg/mL.

With O=S(=O)(Nc1ccncc1Cl)c1cc(Cl)ccc1Cl as the compound, how does the solubility kinetic read?
The solubility kinetic was greater than 50.6 µg/mL.

Which solubility kinetic does the source give for CCCNC(=O)c1ccccc1SCc1c(C)noc1C here?
The solubility kinetic was greater than 45.7 µg/mL.

For CN(CC(=O)Nc1ccc(OC(F)(F)F)cc1)C(=O)Cc1cccs1, which solubility kinetic is on record?
Its solubility kinetic is 9.3 µg/mL (≈ 25 µM).

With Cc1ccc(OCC(=O)Nc2ccccc2F)cc1 as the compound, how does the solubility kinetic read?
Its solubility kinetic is 4.6 µg/mL (≈ 17.7 µM).

Which solubility kinetic does the source give for CN(CC(=O)Nc1cccc(S(=O)(=O)N2CCCC2)c1)Cc1ccccc1 here?
Its solubility kinetic is 17.8 µg/mL (≈ 45.9 µM).

Which solubility kinetic does the source give for O=C(Nc1ccccc1C(=O)NCCc1ccc(O)cc1)c1ccco1 here?
The solubility kinetic was 24.2 µg/mL (≈ 69.1 µM).

With CN(C)CCN=Cc1c(O)n(Cc2ccc3c(c2)OCO3)c(=O)c2ccccc12 as the compound, how does the solubility kinetic read?
Its solubility kinetic is 16.3 µg/mL (≈ 41.4 µM).

For N#Cc1ccc(Oc2ccc(NC(=O)C3CC=CCC3C(=O)O)cc2)cc1 (configuration not stated), which solubility kinetic is on record?
The solubility kinetic was greater than 54.4 µg/mL.

With COc1ccc(NC(=O)C(Cc2ccccc2)n2cccc2)c(OC)c1 (configuration not stated) as the compound, how does the solubility kinetic read?
Its solubility kinetic is 12.9 µg/mL (≈ 36.8 µM).

With CCC(C)n1c(O)c(C=NCC2CCCO2)c(=O)[nH]c1=S (configuration not stated) as the compound, how does the solubility kinetic read?
Its solubility kinetic is 38.3 µg/mL (≈ 123 µM).

Which solubility kinetic does the source give for O=C1N=C(N2CCN(c3ccccc3)CC2)S/C1=C/c1ccco1 here?
Its solubility kinetic is 17.4 µg/mL (≈ 51.3 µM).

With COc1ccccc1NC(=O)COC(=O)/C=C/c1ccc(OC)c(OC)c1 as the compound, how does the solubility kinetic read?
The solubility kinetic was 4.1 µg/mL (≈ 11 µM).

For Cc1ccsc1C(=O)OC(C)C(=O)Nc1ccc(Cl)cn1 (configuration not stated), which solubility kinetic is on record?
Its solubility kinetic is 28.6 µg/mL (≈ 88.1 µM).

For Oc1c(CN2CCCCC2)cc(Br)c2cccnc12, which solubility kinetic is on record?
The solubility kinetic was 33.6 µg/mL (≈ 105 µM).

With CCCCNS(=O)(=O)c1ccc2nc(SCC(N)=O)[nH]c2c1 as the compound, how does the solubility kinetic read?
The solubility kinetic was greater than 51.4 µg/mL.

With O=C(c1c[nH]c2ccccc2c1=O)N1CCCCCC1 as the compound, how does the solubility kinetic read?
Its solubility kinetic is greater than 40.5 µg/mL.

Which solubility kinetic does the source give for Cc1cc(C)cc(OC(=O)c2cccnc2)c1 here?
The solubility kinetic was 30.6 µg/mL (≈ 135 µM).

With COc1ccc(NC(=O)COC(C)=O)cc1OC as the compound, how does the solubility kinetic read?
The solubility kinetic was greater than 38 µg/mL.

For CC(C)(C)C(=O)Nc1cc(NC(=O)C(C)(C)C)cc(C(=O)Nc2c[nH]c(=O)[nH]c2=O)c1, which solubility kinetic is on record?
The solubility kinetic was 45.3 µg/mL (≈ 105 µM).
